# Test results from ChEMBL document CHEMBL4665642, “Anticancer profile of newly synthesized BRAF inhibitors possess 5-(pyrimidin-4-yl)imidazo[2,1-b]thiazole scaffold” (Bioorg Med Chem, 2019).
# Assays:
# Format in all cases: functional
# Details in all cases: read-out: Activity
# IGROV-1 = test: Cytotoxicity against human IGROV-1 cells assessed as cell viability at 10 uM incubated for 48 hrs by sulforhodamine B assay relative to control
# MDA-MB-435 = test: Cytotoxicity against human MDA-MB-435 cells assessed as cell viability at 10 uM incubated for 48 hrs by sulforhodamine B assay relative to control
# K562 = test: Cytotoxicity against human K562 cells assessed as cell viability at 10 uM incubated for 48 hrs by sulforhodamine B assay relative to control
# KM12 = test: Cytotoxicity against human KM12 cells assessed as cell viability at 10 uM incubated for 48 hrs by sulforhodamine B assay relative to control
# U-251 = test: Cytotoxicity against human U-251 cells assessed as cell viability at 10 uM incubated for 48 hrs by sulforhodamine B assay relative to control
# NCI-H322M = test: Cytotoxicity against human NCI-H322M cells assessed as cell viability at 10 uM incubated for 48 hrs by sulforhodamine B assay relative to control
# Malme-3M = test: Cytotoxicity against human Malme-3M cells assessed as cell viability at 10 uM incubated for 48 hrs by sulforhodamine B assay relative to control
# SN12C = test: Cytotoxicity against human SN12C cells assessed as cell viability at 10 uM incubated for 48 hrs by sulforhodamine B assay relative to control
# EKVX = test: Cytotoxicity against human EKVX cells assessed as cell viability at 10 uM incubated for 48 hrs by sulforhodamine B assay relative to control
# HOP-62 = test: Cytotoxicity against human HOP-62 cells assessed as cell viability at 10 uM incubated for 48 hrs by sulforhodamine B assay relative to control
# NCI-H522 = test: Cytotoxicity against human NCI-H522 cells assessed as cell viability at 10 uM incubated for 48 hrs by sulforhodamine B assay relative to control
# M14 = test: Cytotoxicity against human M14 cells assessed as cell viability at 10 uM incubated for 48 hrs by sulforhodamine B assay relative to control
# SNB-19 = test: Cytotoxicity against human SNB-19 cells assessed as cell viability at 10 uM incubated for 48 hrs by sulforhodamine B assay relative to control
# ACHN = test: Cytotoxicity against human ACHN cells assessed as cell viability at 10 uM incubated for 48 hrs by sulforhodamine B assay relative to control
# TK-10 = test: Cytotoxicity against human TK-10 cells assessed as cell viability at 10 uM incubated for 48 hrs by sulforhodamine B assay relative to control
# UACC-257 = test: Cytotoxicity against human UACC-257 cells assessed as cell viability at 10 uM incubated for 48 hrs by sulforhodamine B assay relative to control
# UACC-62 = test: Cytotoxicity against human UACC-62 cells assessed as cell viability at 10 uM incubated for 48 hrs by sulforhodamine B assay relative to control
# CAKI-1 = test: Cytotoxicity against human CAKI-1 cells assessed as cell viability at 10 uM incubated for 48 hrs by sulforhodamine B assay relative to control
# NCI-H23 = test: Cytotoxicity against human NCI-H23 cells assessed as cell viability at 10 uM incubated for 48 hrs by sulforhodamine B assay relative to control
# COLO 205 = test: Cytotoxicity against human COLO 205 cells assessed as cell viability at 10 uM incubated for 48 hrs by sulforhodamine B assay relative to control
# CCRF-CEM = test: Cytotoxicity against human CCRF-CEM cells assessed as cell viability at 10 uM incubated for 48 hrs by sulforhodamine B assay relative to control
# SF-268 = test: Cytotoxicity against human SF-268 cells assessed as cell viability at 10 uM incubated for 48 hrs by sulforhodamine B assay relative to control
# SK-MEL-5 = test: Cytotoxicity against human SK-MEL-5 cells assessed as cell viability at 10 uM incubated for 48 hrs by sulforhodamine B assay relative to control
# PC-3 = test: Cytotoxicity against human PC-3 cells assessed as cell viability at 10 uM incubated for 48 hrs by sulforhodamine B assay relative to control
# SK-OV-3 = test: Cytotoxicity against human SK-OV-3 cells assessed as cell viability at 10 uM incubated for 48 hrs by sulforhodamine B assay relative to control
# HCC 2998 = test: Cytotoxicity against human HCC 2998 cells assessed as cell viability at 10 uM incubated for 48 hrs by sulforhodamine B assay relative to control
# OVCAR-4 = test: Cytotoxicity against human OVCAR-4 cells assessed as cell viability at 10 uM incubated for 48 hrs by sulforhodamine B assay relative to control
# OVCAR-3 = test: Cytotoxicity against human OVCAR-3 cells assessed as cell viability at 10 uM incubated for 48 hrs by sulforhodamine B assay relative to control
# HCT-116 = test: Cytotoxicity against human HCT-116 cells assessed as cell viability at 10 uM incubated for 48 hrs by sulforhodamine B assay relative to control
# HOP-92 = test: Cytotoxicity against human HOP-92 cells assessed as cell viability at 10 uM incubated for 48 hrs by sulforhodamine B assay relative to control
# UO-31 = test: Cytotoxicity against human UO-31 cells assessed as cell viability at 10 uM incubated for 48 hrs by sulforhodamine B assay relative to control
# BT-549 = test: Cytotoxicity against human BT-549 cells assessed as cell viability at 10 uM incubated for 48 hrs by sulforhodamine B assay relative to control
# 786-0 = test: Cytotoxicity against human 786-0 cells assessed as cell viability at 10 uM incubated for 48 hrs by sulforhodamine B assay relative to control
# SW-620 = test: Cytotoxicity against human SW-620 cells assessed as cell viability at 10 uM incubated for 48 hrs by sulforhodamine B assay relative to control
# OVCAR-8 = test: Cytotoxicity against human OVCAR-8 cells assessed as cell viability at 10 uM incubated for 48 hrs by sulforhodamine B assay relative to control
# SF-295 = test: Cytotoxicity against human SF-295 cells assessed as cell viability at 10 uM incubated for 48 hrs by sulforhodamine B assay relative to control
# RPMI-8226 = test: Cytotoxicity against human RPMI-8226 cells assessed as cell viability at 10 uM incubated for 48 hrs by sulforhodamine B assay relative to control
# NCI/ADR-RES = test: Cytotoxicity against human NCI/ADR-RES cells assessed as cell viability at 10 uM incubated for 48 hrs by sulforhodamine B assay relative to control
# MOLT-4 = test: Cytotoxicity against human MOLT-4 cells assessed as cell viability at 10 uM incubated for 48 hrs by sulforhodamine B assay relative to control
# SNB-75 = test: Cytotoxicity against human SNB-75 cells assessed as cell viability at 10 uM incubated for 48 hrs by sulforhodamine B assay relative to control
# OVCAR-5 = test: Cytotoxicity against human OVCAR-5 cells assessed as cell viability at 10 uM incubated for 48 hrs by sulforhodamine B assay relative to control
smiles,measurement,setting,value
O=S(=O)(NCCNc1nccc(-c2c(-c3cccc(F)c3)nc3sccn23)n1)c1ccccc1,viability at 10 µM,IGROV-1,4.9%
same,viability at 10 µM,MDA-MB-435,17.4%
same,viability at 10 µM,K562,23.9%
same,viability at 10 µM,KM12,28.8%
same,viability at 10 µM,U-251,44%
same,viability at 10 µM,NCI-H322M,51.5%
same,viability at 10 µM,Malme-3M,68.5%
same,viability at 10 µM,SN12C,40.3%
same,viability at 10 µM,EKVX,53.4%
same,viability at 10 µM,HOP-62,60.2%
same,viability at 10 µM,NCI-H522,43.7%
same,viability at 10 µM,M14,41.4%
same,viability at 10 µM,SNB-19,55.9%
same,viability at 10 µM,ACHN,26%
same,viability at 10 µM,TK-10,59.5%
same,viability at 10 µM,UACC-257,65.3%
same,viability at 10 µM,UACC-62,24.9%
same,viability at 10 µM,CAKI-1,39.1%
same,viability at 10 µM,NCI-H23,56.1%
same,viability at 10 µM,COLO 205,24.1%
same,viability at 10 µM,CCRF-CEM,33.6%
same,viability at 10 µM,SF-268,43.5%
same,viability at 10 µM,SK-MEL-5,19.1%
same,viability at 10 µM,PC-3,33.1%
same,viability at 10 µM,SK-OV-3,57.1%
same,viability at 10 µM,HCC 2998,66.3%
same,viability at 10 µM,OVCAR-4,40%
same,viability at 10 µM,OVCAR-3,58.9%
same,viability at 10 µM,HCT-116,22.7%
same,viability at 10 µM,HOP-92,51.5%
same,viability at 10 µM,UO-31,15.4%
same,viability at 10 µM,BT-549,50.4%
same,viability at 10 µM,786-0,47.4%
same,viability at 10 µM,SW-620,44.5%
same,viability at 10 µM,OVCAR-8,33.9%
same,viability at 10 µM,SF-295,47.4%
same,viability at 10 µM,RPMI-8226,43.5%
same,viability at 10 µM,NCI/ADR-RES,46.3%
same,viability at 10 µM,MOLT-4,16.6%
same,viability at 10 µM,SNB-75,71.5%
same,viability at 10 µM,OVCAR-5,79.6%
